In patent publication US9517244B2, “Therapeutic combinations for use in neoplasia” (University of Florida Research Foundation, Inc., priority 2011, dated 2016):

Test system: human parental cancer cells
Experiment: cell growth inhibition of parental cancer cells
Assay type: cell-based
Conditions: Homo sapiens, 72 h
Procedure: Cells were treated with 1.25 μM of NSC-30049 and 1.25 μM of OPT either alone or in combination for 72 h. Data are mean±SD of triplicate experiments. […] Cells were treated with 1.25 μM of NSC-30049 and 1.25 μM of OPT either alone or in combination for 72 h. Fold change in gene expression values is shown as mean±SD of three experiments and are normalized to GAPDH gene expression.
The effect of administration of NSC-30049 in combination with oxaliplatin (OPT) was also examined in human parental cancer cells and colon cancer stem cells (FIG. 9A). Cells were treated with 1.25 μM of NSC-30049 and […] of OPT either alone or in combination for 72 h. Cell growth inhibition was assayed. Data presented are mean±SD of triplicate experiments.

Compound: ClCC=CC[N+]12CN3CN(CN(C3)C1)C2 [NSC-30049, 1-(4-Chloro-2-butenyl)-1λ˜5˜,3,5,7-tetraazatricyclo[3.3.1.1˜3,7˜]decane]
- inhibition at 1.25 µM (1.25 μM NSC-30049 in combination with 1.25 μM oxaliplatin): ~70%
- inhibition at 1.25 µM (alone, 1.25 μM): ~20%
